Test results reported in US20040132188A1, “Use of non-complexing peptides for the preparation of a composition for transfection of a polynucleotide into a cell and compositions useful in gene therapy” (priority 2001, published 2004).
“Also recorded” adds a separate entry of the source. Square brackets hold non-standard residues; d marks the D form. Ends that are not written are not given here.

Assays:
[1] = Liposome leakage assay, POPC/cholesterol 3:2 liposomes; format: biochemical; conditions: for liposome leakage activity / calcein release: POPC/chol liposomes, pH 7
Description: FIG. 9: Liposome leakage assay. […] Emitted fluorescence was plotted against peptide concentration. […] C) Comparison of ppTG1, ppTG20 and ppTG21 at pH 7.
Leakage activity was plotted against peptide concentration.

[2] = tested on: HeLa cells; experiment: Transfection in vitro, luciferase plasmid pTG11236; format: cell-based; conditions: for transfection / gene transfer efficiency in vitro: 50 ng pTG11236, increasing amounts of peptide, day 1
Method: Cells were plated on 24 well plates at a density of 4×10^4 (293-EBNA ) or 7×10^4 (HeLa, Renca) cells/well in DMEM supplemented with 10% FCS. The next day, the medium was replaced by 200 μl serum-free DMEM and plasmid (PTG11056 or pTG11236)/peptide complexes or plasmid/peptide/lipid complexes were prepared in 30 μl 0.9% NaCl or 5% glucose. After 20 min at room temperature these complexes were added to the cells which were then incubated for 2-3 h at 37° C. and 5% CO2 before 1 ml serum-containing DMEM was added. Approximately 20 hours later, cells were lysed by addition of 100 μl 1× Promega lysis buffer, 20 μl of the lysates were analysed for luciferase activity. Proteins were quantified with the bicinchonic acid (BCA) colorimetric method (Smith, Anal. Biochem. 150 (1985), 76-85). […]
HeLa cells were seeded at a density of 6×10^4 cells on 24 well plates. The next day, cells were incubated with 200 μl serum-free medium, 30 μl of plasmid (50 ng)/peptide/lipid mixtures were added and incubated for 3 h at 37° C. in 5% CO2. 1 ml of DMEM+10% FCS was then added. The next day, the medium was removed and cells were washed with 500 μl of PBS and subsequently treated with 100 μl of Promega lysis buffer. Plates were stored at −80° C. until luciferase activity was measured of 20 μl of the cell lysate. The protein assay was performed using the Pierce BCA kit.
JTS1 was dissolved to 1 mg/ml in 1 mM NaOH and mixed with DNA diluted in 5% glucose. ppTG1 was then added to this solution. The pcTG90/DOPE ppTG1 mixtures were prepared as described in Example 6. Transfection assays were performed on HeLa cells with 50 ng of plasmid as described in Example 6.
The series of ppTG1 derivatives listed in Material and Methods were tested for their gene transfer efficiencies in Hela cells. 6×10^4 cells were transfected with 50 ng pTG11236 complexed with increasing amounts of peptide. Luciferase activity was analyzed day 1 after transfection. The results are shown in FIG. 10B (ppTG20, ppTG21), FIG. 10C (ppTG25, ppTG26, ppTG27), FIG. 10D (ppTG28 to ppTG33), FIG. 10E (PEG-ppTG1 and PEG-ppTG20), FIG. 10F (ppTG22 to ppTG24) and FIG. 10G (ppTG20-D).

[3] = tested on: B6SJL mice, lungs; experiment: In vivo gene transfer after intravenous injection, luciferase activity in the lungs; conditions: pTG11236/peptide complexes intravenously injected; for gene transfer efficiency in the lung: luciferase day 1
Method: Mice were sacrificed at day 1.
Lungs were tested for luciferase activity.

[4] = tested on: plasmid pTG11236; experiment: Gel retardation assay (DNA binding activity)
Method: 3 μg of the plasmid pTG11236 were incubated with increasing amounts of the respective peptide in a final volume of 30 μl with 0.9% NaCl. After 20 min of incubation at room temperature, 6 μl 5× loading buffer (glycerol and bromphenol blue in TAE buffer) were added and 10 μl of these solutions were analyzed on a 1% agarose gel in the presence of ethidium bromide.
The ability of ppTG1 peptide to complex DNA was analyzed by gel retardation assays. […] After 20 minutes incubation at room temperature, loading buffer was added and 10 μl of the resulting solution were analyzed on a 1% agarose gel.
ppTG1 derivatives as they are indicated in Materials and Methods, were tested for their capacity to bind plasmid DNA by gel retardation assays.

[5] = Liposome leakage assay, POPC/cholesterol 3:2 liposomes; format: biochemical; conditions: POPC/chol liposomes, pH 5
[6] = pH 5 versus pH 7; cited from earlier work
[7] = tested on: RENCA tumors; experiment: In vivo gene transfer after intratumoral injection, luciferase activity in tumors; set-up: species or system B6D2 mice; conditions: 10 μg pTG11236, peptide at pH 8, intratumoral, day 1
Method: 4×10^5 RENCA cells (murine kidney tumor cells, ATCC) were injected subcutaneously into B6D2 mice to provoke tumor growth. When tumors reached a size of approximatively 30 mm^3, 30 μl of a 5% glucose solution, containing the luciferase expression plasmid DNA pTG11236 in presence or absence of peptide of the present invention were injected into the tumors. Mice were sacrificed at day 1 after injection, tumors were recovered and homogeinized. Luciferase activity was analyzed and expressed as RLU/g tumor.
The peptide ppTG21 was tested for its capacity to enhance plasmid transfer after intratumoral injection in RENCA tumor-bearing mice. Ten μg of the luciferase expression plasmid pTG11236 were mixed with increasing amounts (i.e. 0.1, 0.6, 3 or 15 micrograms) of ppTG21 at pH 8 (10 mM Tris pH 8). […] In paralell, experiments have been conducted in identical conditions by administering the same plasmid DNA in the presence of increasing amounts (i.e. 0.1%, 0.2%, 0.4% and 0.6 %) of HPC (Hexadecyl-phospho-choline). Plasmid DNA alone, or plasmid DNA in the presence of HPC or ppTG21 were intratumorally injected in similar conditions. Next day, luciferase activities in the tumors was determined (RLU/g tumour).

[8] = 50 ng pTG11236 complexed with 0.9 μg ppTG1 and 0.1 μg JTS1, final charge ratio 5

Row | Substance | liposome leakage activity / calcein release [1] | transfection / gene transfer efficiency in vitro ([2]; HeLa cells) | other results
1 | GLFRRLLRLLRRLWRLLLRA | comparable to ppTG1 and ppTG20; also recorded: slightly reduced | comparable to ppTG1 and ppTG20; also recorded: did not change | –
2 | GLFRALLRLLRSLWRLLLRA [ppTG20] | – | – | toxicity [3]: less toxic than ppTG1
3 | GLFEALLELLESLWELLLEACCYKAKKKKKKKKWKKKKQS (cysteine pairing not given here) [reference compound] | impeded in calcein release | – | retardation of pTG11236 ([4]; 3 μg (0.6 nmol) peptide, 3 μg pTG11236): > 95%; transfection ([2]; 0.05 μg plasmid DNA): remains low; gene transfer efficiency in the lung [3]: low; liposome leakage activity / calcein release [5]: low level release
4 | GIFRAIIRIIRSIWRIIIRA | slightly reduced | diminished; also recorded: reduced | –
5 | GIFKAIIKIIKSIWKIIIKA | – | diminished; also recorded: reduced | –
6 | Gly-Leu-Phe-Arg-Ala-Leu-Leu-Arg-Leu-Leu-Arg-Ser-Leu-Trp-Arg-Leu-Leu-Leu-Arg-Ala (G[dL][dF][dR][dA][dL][dL][dR][dL][dL][dR][dS][dL][dW][dR][dL][dL][dL][dR][dA]) [ppTG20-D] | retained | retained; also recorded: as efficient as ppTG1 | gene transfer efficiency in the lung [3]: even higher than with ppTG1; also recorded: even more efficient than ppTG20
7 | GLFEALLELLESLWELLLEA [reference compound] | reduced | – | increase of luciferase activity versus best formulation of ppTG1/pcTG90/DOPE [2, 8]: about 10 factor; increase of luciferase activity versus pcTG90/DOPE alone [2, 8]: about 1000 factor; liposome leakage activity / calcein release [5]: high lysis activity; lysing of calcein containing phosphatidylcholine liposomes [6]: more efficiently than at a pH 7
8 | GLFHALLHLLHSLWHLLLHA | comparable to ppTG1 | strongly reduced | binding to plasmid DNA ([4]; pH 5): binds plasmid DNA; also recorded: can bind DNA; binding to plasmid DNA ([4]; pH 8): not capable to bind to plasmid DNA; gene expression (luciferase) in tumors after co-injection with plasmid [7]: increase of apparent gene expression; also recorded: dramatic improvement of the nucleic acid transfer efficiency
9 | GVFKAVVKVVKSVWKVVVKA | diminished; also recorded: significantly reduced | diminished | gene transfer efficiency in the lung [3]: drastically reduced; also recorded: did not lead to detectable reporter gene expression
10 | CGLFKALLKLLKSLWKLLLKA | slightly reduced | – | –
11 | WEAKLAKALAKALAKHLAKALAKALKACEA [reference compound] | – | – | liposome leakage activity ([1]; POPC/Chol (3:2) liposomes, pH not separated (compared at pH 5 and pH 7)): no activity; also recorded: could not liberate calcein; gene transfer at optimal charge ratio lower than for ppTG1 ([2]; 50 ng pTG11236): 200 fold; gene transfer at optimal charge ratio lower than for ppTG1 ([2]; 500 ng pTG11236): 4 fold; best (optimal) charge ratio for gene transfer ([2]; HeLa cells, 50 ng and 500 ng pTG11236): 7; gene transfer efficiency in the lung [3]: undetectable; also recorded: inefficient
12 | GVFRAVVRVVRSVWRVVVRA | diminished; also recorded: significantly reduced | diminished | –
13 | CGLFKALLKLLKSLWKLLLKAC (cysteine pairing not given here) | slightly reduced | – | –
14 | GLFKKLLKLLKKLWKLLLKA | comparable to ppTG1 and ppTG20; also recorded: slightly reduced | comparable to ppTG1 and ppTG20; also recorded: did not change | –
